Source: patent publication US20240067660A1, “MACROCYCLIC SPIROCYCLE DERIVATIVES AS MCL-1 INHIBITORS” (Janssen Pharmaceutica NV, priority 2019, published 2024)
Where two headings read alike, the source gives them in different places.

Tests used:
MOLP8 cells = test: MOLP8 CellEvent Caspase-3/7 Green IncuCyte live-cell apoptosis assay; assay type: cell-based, human
Method: (§1) MCL-1 is a regulator of apoptosis and is highly over-expressed in tumor cells that escape cell death. The assay evaluates the cellular potency of small-molecule compounds targeting regulators of the apoptosis pathway, primarily MCL-1, Bfl-1, Bcl-2, and other proteins of the Bcl-2 family. Protein-protein inhibitors disrupting the interaction of anti-apoptotic regulators with BH3-domain proteins initiate apoptosis.
Activation of the apoptotic pathway was measured using the CellEvent™ Caspase-3/7 Green ReadyProbes™ Reagent (Thermo Fisher C10423, C10723). This assay produces a green fluorescent stain in cells that enter the apoptosis pathway. CellEvent® Caspase-3/7 Green reagent is a four amino acid peptide (DEVD) conjugated to a nucleic acid-binding dye that is non-fluorescent when not bound to DNA. The CellEvent® Caspase-3/7 Green reagent is intrinsically non-fluorescent, as the DEVD peptide inhibits binding of the dye to DNA. Upon activation of caspase-3/7 in apoptotic cells, the DEVD peptide is cleaved and the free dye can bind DNA, generating a bright green fluorescence. The activation of Caspase-3 and Caspase-7 is downstream of inhibition of MCL-1 or other apoptosis inhibiting proteins in cell lines that are dependent on them.
The live-cell readout on the IncuCyte permits tracking over time of the Caspase activation. […] The IncuCyte readout also allows one to normalize for cell number, as the suspension cells are hard to distribute evenly.
Signals were measured every 2 h for a duration of 22 h. The ratio of the Caspase mask to the Confluence mask, per image, as raw data, was calculated and the kinetic trace for every well was exported to Genedata Screener for analysis.
In Genedata Screener values for 6 h, 12 h, and 22 h from the kinetic traces were extracted. The values were normalized against negative controls (untreated cells). A standard dose-response analysis was performed on the normalized data.
The following data was reported at each of the following three aforementioned time points: (a) The dose-response curve, (b) The qAC50 and qAC50 Mode, and (c) Max Activity.
Cells were maintained in culture medium containing 10% Heat Inactivated (HI) FBS, 2 mM L-Glutamine and 50 μg/mL Gentamycin phenol red free RPMI-1640. Cells were split at 0.4 million/mL twice a week.
On Day 1, plates containing individual wells with test compounds at 10 mM concentration, 150 nL per well. The final concentrations range from […] compound (and no compound control) and compounds were thawed at room temperature for 1 hour. 25 μl of prewarmed medium was added into each well by multidrop (column 1, 3-22, 24), followed by addition of DMSO control (0.6% DMSO) in column 2. The plate was sealed using Breathe-Easy® sealing membrane and shaken for 30 min at room temperature to dissolve the test compound(s) in medium. The plate was then kept in the incubator for 1 hour at 37° C., 5% CO2.
MOLP8 cells in medium at […] (20000/50 μl final in assay) were prepared with CellEvent™ Caspase-3/7 Green Detection Reagent at 4 μM (2 μM final in assay). Once prepared, the cells were added to the test compound plate in an amount of 20000 and the plate was immediately placed in the IncuCyte and imaging started using following settings: 10× objective, 2 s exposure time in green channel, interval of 2 h, acquisition stopped after 22 h.
For analysis in IncuCyte, a Basic Analysis protocol was defined to calculate the “confluence” and “caspase” areas from the “Phase” and “green” images, respectively, as follows: (a) Confluence: Segmentation Adjustment 1, Hole Fill 0, Adjust Size −2, No filters (b) Caspase: Top-Hat segmentation, Radius 10, Threshold 0.3 GCU, Edge Split On with sensitivity 0, Hole Fill 0, Adjust Size 1, and filter on a minimum Area of 20 μm^2. The analyzer is trained on a sufficient number of positive and negative control wells, as well as compound treated wells, verifying that the “confluence” layer detects both live and dead (condensed) cells. […]

[1] = tested on: MOLP-8 human multiple myeloma cell line; test: Caspase-Glo 3/7 assay in MOLP-8 cells; assay type: cell-based; settings: Caspase-Glo 3/7, 2 hours incubation, averaged over all runs on all batches, read-out: MOLP8 AC50
From the text: as §1
The Caspase-Glo® 3/7 Assay is a luminescent assay that measures caspase-3 and -7 activities in purified enzyme preparations or cultures of adherent or suspension cells. The assay provides a proluminescent caspase-3/7 substrate, which contains the tetrapeptide sequence DEVD. This substrate is cleaved to release aminoluciferin, a substrate of luciferase used in the production of light. Addition of the single Caspase-Glo® 3/7 Reagent in an “add-mix-measure” format results in cell lysis, followed by caspase cleavage of the substrate and generation of a “glow-type” luminescent signal.
This assay uses the MOLP-8 human multiple myeloma cell line, which is sensitive to MCL-1 inhibition.
Cell cultures were maintained between 0.2 and 2.0×10^6 cells/mL. The cells were harvested by collection in 50 mL conical tubes. The cells were then pelleted at 500 g for 5 mins before removing supernatant and resuspension in fresh pre-warmed culture medium. The cells were counted and diluted as needed.
The assay reagent was prepared by transferring the buffer solution to the substrate vial and mixing. The solution may be stored for up to 1 week at 4° C. with negligible loss of signal.
Compounds were delivered in assay-ready plates (Proxiplate) and stored at −20° C. Assays always include 1 reference compound plate containing reference compounds. The plates were spotted with 40 nL of compounds (0.5% DMSO final in cells; serial dilution; 30 μM highest conc. 1/3 dilution, 10 doses, duplicates). The compounds were used at room temperature and 4 μL of pre-warmed media was added to all wells except column 2 and 23. The negative control was prepared by adding 1% DMSO in media. The positive control was prepared by adding the appropriate positive control compound in final concentration of 60 μM in media. The plate was prepared by adding 4 μL negative control to column 23, 4 μL positive control to column 2 and 4 μL cell suspension to all wells in the plate. The plate with cells was then incubated at 37° C. for 2 hours. The assay signal reagent is the Caspase-Glo solution described above, and 8 μL was added to all wells. The plates were then sealed and measured after 30 minutes.
The activity of a test compound was calculated as percent change in apoptosis induction as follows: […]

[2] = target: Myeloid Cell Leukemia 1(Mcl-1) (Homo sapiens (Human), UniProt Q07820); test: Terbium labeled Mcl-1 HTRF binding assay with Cy5-labeled BIM BH3 peptide
Method: Terbium labeled Myeloid Cell Leukemia 1(Mcl-1) homogeneous time-resolved fluorescence (HTRF) binding assay utilizing the BIM BH3 peptide (H2N-(C/Cy5Mal) WIAQELRRIGDEFN-OH) as the binding partner for Mcl-1.
This assay evaluated inhibition of the BH3 domain: Mcl-1 interaction by measuring the displacement of Cy5-labeled BIM BH3 peptide (H2N—(C/Cy5Mal) WIAQELRRIGDEFN-OH) in the HTRF assay format.
The following assay and stock buffers were prepared for use in the assay: (a) Stock buffer: 10 mM Tris-HCl, pH=7.5+150 mM NaCl, filtered, sterilized, and stored at 4° C.; and (b) 1× assay buffer, where the following ingredients were added fresh to stock buffer: 2 mM dithiothreitol (DTT), 0.0025% Tween-20, 0.1 mg/mL bovine serum albumin (BSA). The 1×Tb-Mcl-1+Cy5 Bim peptide solution was prepared by diluting the protein stock solution using the 1× assay buffer (b) to 25 pM Tb-Mcl-1 and 8 nM Cy5 Bim peptide.
Using the Acoustic ECHO, 100 nL of 100× test compound(s) were dispensed into individual wells of a white 384-well Perkin Elmer Proxiplate, for a final compound concentration of lx and final DMSO concentration of 1%. Inhibitor control and neutral control (NC, 100 nL of 100% DMSO) were stamped into columns 23 and 24 of assay plate. Into each well of the plate was then dispensed 10 μL of the 1×Tb-Mcl-1+Cy5 Bim peptide solution. The plate was centrifuged with a cover plate at 1000 rpm for 1 minute, then incubated for 60 minutes at room temperature with plates covered.
The TR-FRET signal was read on an BMG PHERAStar FSX MicroPlate Reader at room temperature using the HTRF optic module (HTRF: excitation: 337 nm, light source: laser, emission A: 665 nm, emission B: 620 nm, integration start: 60 μs, integration time: […]).
The BMG PHERAStar FSX MicroPlate Reader was used to measure fluorescence intensity at two emission wavelengths—665 nm and 620 nm—and report relative fluorescence units (RFU) for both emissions, as well as a ratio of the emissions (665 nm/620 nm)*10,000. The RFU values were normalized to percent inhibition as follows:
% inhibition=((NC−IC)−(compound−IC))/(NC−IC))*100
where IC (inhibitor control, low signal)=mean signal of 1×Tb-MCl-1+Cy5 Bim peptide+inhibitor control or 100% inhibition of Mcl-1; NC (neutral control, high signal)=mean signal 1×Tb-MCl-1+Cy5 Bim peptide with DMSO only or 0% inhibition An 11-point dose response curve was generated to determine IC50 values (using GenData) based on the following equation:
Y=Bottom+(Top−Bottom)/(1+10^((IogIC50−X)*HillSlope))
where Y=% inhibition in the presence of X inhibitor concentration; Top=100% inhibition derived from the IC (mean signal of Mcl-1+inhibitor control); Bottom=0% inhibition derived from the NC (mean signal of Mcl-1+DMSO); Hillslope=Hill coefficient; and IC50=concentration of compound with 50% inhibition in relation to top/neutral control (NC).
In this assay [L]=8 nM and Kd=10 nM

[3] = 6 h, read-out: MOLP8 Caspase 3/7 AC50 at 6 h
[4] = 12 h, read-out: MOLP8 Caspase 3/7 AC50 at 12 h
[5] = 22 h, read-out: MOLP8 Caspase 3/7 AC50 at 22 h
[6] = Homo sapiens, MOLP-8, 6 h, 6 h, read-out: MOLP8 Caspase 3/7 AC50 at 6 h
[7] = Homo sapiens, MOLP-8, 12 h, 12 h, read-out: MOLP8 Caspase 3/7 AC50 at 12 h
[8] = Homo sapiens, MOLP-8, 22 h, 22 h, read-out: MOLP8 Caspase 3/7 AC50 at 22 h
[9] = first table, [L]=8 nM, Kd=10 nM, before recalibration of the equipment

Sequence of Myeloid Cell Leukemia 1(Mcl-1) (Q07820 whole entry): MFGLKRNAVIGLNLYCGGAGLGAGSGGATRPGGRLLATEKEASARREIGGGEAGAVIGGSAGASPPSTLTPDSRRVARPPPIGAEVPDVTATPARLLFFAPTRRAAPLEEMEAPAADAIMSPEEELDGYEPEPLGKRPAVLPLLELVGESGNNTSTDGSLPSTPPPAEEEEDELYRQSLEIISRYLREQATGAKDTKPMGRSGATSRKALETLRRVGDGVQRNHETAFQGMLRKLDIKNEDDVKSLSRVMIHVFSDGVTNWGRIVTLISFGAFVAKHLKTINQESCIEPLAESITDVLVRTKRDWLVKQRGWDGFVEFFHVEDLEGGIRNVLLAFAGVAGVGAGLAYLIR

C[C@@H]1[C@@H](C)C/C=C/CN2CC[C@H]2CN2CC3(CCOc4cc(Cl)ccc43)COc3ccc(cc32)C(=O)NS1(=O)=O (single isomer, unassigned) [Compound 5]
AC50 (MOLP8 cells; [3]): 6.31 µM
AC50 (MOLP8 cells; [4]): 6.6 µM
AC50 (MOLP8 cells; [5]): 5.75 µM
AC50 ([1]; Homo sapiens, MOLP-8, 2 h): 3.74 µM

C[C@@H]1[C@@H](C)C/C=C/CN2CC[C@H]2CN2CC3(CCOc4cc(Cl)ccc43)COc3ccc(cc32)C(=O)NS1(=O)=O (single isomer, unassigned) [Compound 6]
AC50 (MOLP8 cells; [3]): > 30 µM
AC50 (MOLP8 cells; [4]): > 30 µM
AC50 (MOLP8 cells; [5]): > 30 µM

COCC1(CO)/C(F)=C/C[C@H](C)[C@@H](C)S(=O)(=O)NC(=O)c2ccc3c(c2)N(C[C@@H]2CCN21)C[C@@]1(CCCc2cc(Cl)ccc21)CO3 (single isomer, unassigned) [Compound 38]
AC50 [1]: 0.152 µM
Ki ([2]; obtained after recalibration of the equipment, averaged values over several runs): 0.00015 µM

C[C@@H]1[C@@H](C)C/C=C(/F)CN2CC[C@H]2CN2C[C@@]3(CCCc4cc(Cl)ccc43)COc3ccc(cc32)C(=O)NS1(=O)=O [Compound 1]
AC50 (MOLP8 cells; [6]): 7.76 µM
AC50 (MOLP8 cells; [7]): ~10.5 µM
AC50 (MOLP8 cells; [8]): 7.94 µM

C[C@@H]1[C@@H](C)C/C=C(\F)CN2CC[C@H]2CN2C[C@@]3(CCCc4cc(Cl)ccc43)COc3ccc(cc32)C(=O)NS1(=O)=O [Compound 2]
AC50 (MOLP8 cells; [6]): ~0.97 µM
AC50 (MOLP8 cells; [7]): ~1.05 µM
AC50 (MOLP8 cells; [8]): 1.2 µM
AC50 ([1]; Homo sapiens, MOLP-8, 2 h): 0.693 µM

C[C@@H]1[C@@H](C)C/C=C/CN2CC[C@H]2CN2C[C@@]3(CCCc4cc(Cl)ccc43)COc3ccc(cc32)C(=O)NS1(=O)=O [Compound 3]
AC50 (MOLP8 cells; [6]): 2.4 µM
AC50 (MOLP8 cells; [7]): 2.69 µM
AC50 (MOLP8 cells; [8]): 3.09 µM
Ki [2, 9]: 0.00314 µM

COCCOCCOC[C@H]1/C(F)=C/C[C@H](C)[C@@H](C)S(=O)(=O)NC(=O)c2ccc3c(c2)N(C[C@@H]2CCN21)C[C@@]1(CCCc2cc(Cl)ccc21)CO3 [Compound 14]
AC50 (MOLP8 cells; [6]): 0.3 µM
AC50 (MOLP8 cells; [7]): 0.35 µM
AC50 (MOLP8 cells; [8]): 0.37 µM
Ki [2, 9]: 0.00034 µM

COC[C@H]1/C(F)=C/C[C@H](C)[C@@H](C)S(=O)(=O)NC(=O)c2ccc3c(c2)N(C[C@@H]2CCCN21)C[C@@]1(CCCc2cc(Cl)ccc21)CO3 [Compound 20]
AC50 (MOLP8 cells; [6]): 0.81 µM
AC50 (MOLP8 cells; [7]): 0.7 µM
AC50 (MOLP8 cells; [8]): 0.61 µM
Ki [2, 9]: 0.00091 µM

C[C@@H]1[C@@H](C)C/C=C(\F)[C@H](COCCN2CCOCC2)N2CC[C@H]2CN2C[C@@]3(CCCc4cc(Cl)ccc43)COc3ccc(cc32)C(=O)NS1(=O)=O [Compound 30]
AC50 (MOLP8 cells; [6]): 0.63 µM
AC50 (MOLP8 cells; [7]): 0.56 µM
AC50 (MOLP8 cells; [8]): 0.62 µM

C[C@@H]1[C@@H](C)C/C=C(\F)[C@H](CN2CCN3CCN(C)C[C@@H]3C2)N2CC[C@H]2CN2C[C@@]3(CCCc4cc(Cl)ccc43)COc3ccc(cc32)C(=O)NS1(=O)=O [Compound 32]
AC50 (MOLP8 cells; [6]): 1.1 µM
AC50 (MOLP8 cells; [7]): 0.96 µM
AC50 (MOLP8 cells; [8]): 0.96 µM

C[C@@H]1[C@@H](C)C/C=C(\F)[C@H](CN2CCOCC2)N2CC[C@H]2CN2C[C@@]3(CCCc4cc(Cl)ccc43)COc3ccc(cc32)C(=O)NS1(=O)=O [Compound 33]
AC50 (MOLP8 cells; [6]): 0.33 µM
AC50 (MOLP8 cells; [7]): 0.34 µM
AC50 (MOLP8 cells; [8]): 0.56 µM

COCCOCC1(COCCOC)/C(F)=C/C[C@H](C)[C@@H](C)S(=O)(=O)NC(=O)c2ccc3c(c2)N(C[C@@H]2CCN21)C[C@@]1(CCCc2cc(Cl)ccc21)CO3 [Compound 41]
AC50 ([1]; Homo sapiens, MOLP-8, 2 h): 0.152 µM
